Reference: patent EP0765662A1, “HIV GROWTH INHIBITORY COMPOSITION” (Kochi, Mutsuyuki, priority 1994, dated 1995)
Structures can show the parent of a compound that is named as a salt.

How the values were obtained:
HIV-1 (HTLV-IIIB strain) = assay: Occurrence of HIV-1 positive cells in U1 cells with or without TPA stimulation (indirect fluorescent antibody technique); type: cell-based; details: for Rate (%) of occurrence of HIV-1 positive cells: U1 cells
Experimental: As the cell to be tested here for estimation of the occurrence of HIV in this Example, there were used such U1 cells which had been prepared by introducing 2 copies of the gene DNA of HIV-1 (HTLV-IIIB strain) into U937 cells (human monocytic blast-like cells, namely one sort of human T-cells). The U1 cell is an HIV potentially-infected T-cell wherein the HIV-1 gene is present merely as provirus.
The above-mentioned U1 cells were seeded and incubated in Costar 48-well-plates under such different conditions as indicated below. Thus, the U1 cells were seeded in a culture medium and were incubated in the presence of 5,6-O-benzylidene-L-ascorbic acid mono-sodium salt (hereinafter abbreviated as SBA) as incorporated at different concentrations by addition of SBA to the culture medium, or the U1 cells were incubated in the absence of SBA. The incubation of these U1 cells was further effected with such both two types of those U1 cells, namely with such one type of U1 cells which had been stimulated further by addition of TPA at various concentrations thereto, and with such another type of U1 cells which had not been stimulated by TPA.
When the U1 cells as stimulated by the addition of TPA were incubated, replication of the viral particles of HIV took place in considerable numbers of the U1 cells, resulting in the production of the HIV antigen within the cells, so that said cells thus became such HIV-positive cells which could sprout and release the viral particles of HIV therefrom. This replication of the viral particles of HIV can be detected by an indirect fluorescent antibody technique as illustrated below.
The U1 cells were thus incubated under the different conditions as explained in the above, including such a case where both SBA and TPA were not added; such a case where SBA was added, but TPA was not added; such a case where SBA was not added, but TPA was added; and such as case where both SBA and TPA were added, respectively. Then, the replication of the viral particles of HIV within the U1 cells, and the release of the viral particles of HIV from the U1 cells so incubated under the different conditions as above mentioned were detected by means of the indirect fluorescence technique in which there were employed a mouse monoclonal antibody having an anti-HIV-1 activity as a primary antibody and also employed an FITC-rabbit-originated […] as a secondary antibody. The number of the U1 cells which could be detected as the HIV-positive cells was calculated in term of percentage (%) on the basis of the total numbers of the U1 cells as subjected to the test, and it was expressed as the rate (%) of occurrence or appearance of the HIV-1 positive cells.

HIVBRU = assay: Formation of giant cells from HIV-infected Molt-4 cells (mixed cultivation, microscopic observation); type: cell-based; details: mixed cultivation of HIV-infected and HIV-non-infected Molt-4 cells; 20 hours of the cultivation; read-out: concentration of SBA that can inhibit the formation of the giant cells
Experimental: In the tests above, the replication of the viral particles of HIV was examined in terms of the amount of the p24 antigen protein produced and appearing in the culture supernatant from the cultivated cells. Thus, the amount of the p24 antigen produced was measured periodically over 6 days after the A3.01 cells were infested with HIV. It was then observed that in the absence of SBA, the replication of the viral particles of HIV was induced in the A3.01 cells by stimulation with 10 units/ml of TNF-α added. […] Thus, the effective amount of SBA has the activity to inhibit the replication of the viral particles of HIV within the cells to an extent as same as AZT, and from this it is expected that SBA is useful similarly to AZT for the therapeutic treatments of AIDS. (d) Tests for evaluating an inhibitory activity of SBA to the formation of giant cells from HIV-infected Molt-4 cells In a similar manner to that in the above Test (c), Molt-4 cells (a CD4-positive human T-cell strain) were infected with AIDS virus, HIVBRU. Thereafter, The HIV-infected Molt-4 cells were mixed with such Molt-4 cells which had no HIV-infection. And the mixture of these cells were cultivated at a high density of the mixed cells in the above-mentioned improved RPM1-1640 medium containing SBA at its different concentrations. […]

Compound: O=C1O[C@H]([C@@H]2COC(c3ccccc3)O2)C(O)=C1O (stereo partly drawn) [SBA, 5,6-O-benzylidene-L-ascorbic acid mono-sodium salt]
- IC50 (HIV-1 (HTLV-IIIB strain); Human immunodeficiency virus 1, IIIB, U1 cells incubated in the presence of TPA, read-out: concentration of SBA required to achieve 50% inhibition of the replication of the HIV viral particles): ~400 µg/mL
- Rate (%) of occurrence of HIV-1 positive cells (HIV-1 (HTLV-IIIB strain); SBA 25 µg/ml, TPA (1 ng/ml) was added): 26%
- Rate (%) of occurrence of HIV-1 positive cells (HIV-1 (HTLV-IIIB strain); SBA 25 µg/ml, TPA was not added): 3%
- Rate (%) of occurrence of HIV-1 positive cells (HIV-1 (HTLV-IIIB strain); SBA 50 µg/ml, TPA (1 ng/ml) was added): 21%
- Rate (%) of occurrence of HIV-1 positive cells (HIV-1 (HTLV-IIIB strain); SBA 50 µg/ml, TPA was not added): 2%
- Rate (%) of occurrence of HIV-1 positive cells (HIV-1 (HTLV-IIIB strain); SBA 100 µg/ml, TPA (1 ng/ml) was added): 16%
- Rate (%) of occurrence of HIV-1 positive cells (HIV-1 (HTLV-IIIB strain); SBA 100 µg/ml, TPA was not added): 2%
- Rate (%) of occurrence of HIV-1 positive cells (HIV-1 (HTLV-IIIB strain); SBA 200 µg/ml, TPA (1 ng/ml) was added): 14%
- Rate (%) of occurrence of HIV-1 positive cells (HIV-1 (HTLV-IIIB strain); SBA 200 µg/ml, TPA was not added): 3%
- Rate (%) of occurrence of HIV-1 positive cells (HIV-1 (HTLV-IIIB strain); SBA 400 µg/ml, TPA (1 ng/ml) was added): 12%
- Rate (%) of occurrence of HIV-1 positive cells (HIV-1 (HTLV-IIIB strain); SBA 400 µg/ml, TPA was not added): 3%
- Rate (%) of occurrence of HIV-1 positive cells (HIV-1 (HTLV-IIIB strain); SBA 800 µg/ml, TPA (1 ng/ml) was added): 8%
- Rate (%) of occurrence of HIV-1 positive cells (HIV-1 (HTLV-IIIB strain); SBA 800 µg/ml, TPA was not added): 4%
- minimal effective concentration (HIVBRU): ≥ 10 µg/mL
